This note sets out measurements from a melting point compilation (Tetko et al.).

Some results are limits rather than exact numbers.

As usually defined, the melting point is the temperature, or range, at which the solid turns liquid. The compound `O=C1Nc2cc(F)c(Cl)cc2C1=O` gave a melting point of 256 to 258 °C.
`O=C(O)CCOc1ccc(Cl)cc1[N+](=O)[O-]`: the melting point was 127 to 129 °C.
`N=C(N)NN=Cc1ccccc1` had a melting point of 179 to 181 °C.
With `COC(=O)c1cc(Br)cc(S(N)(=O)=O)c1` the figure was 138 to 140 °C.
As to `CCn1cc(S(=O)(=O)Cl)nc1C`, the melting point fell in the range of 65 to 67 °C.
With `O=C(O)C1CC(=O)N(C2CC2)C1` (configuration not stated) the figure was 93 to 95 °C; with `C#CCNC(=O)CC(=O)O`, 64 to 66 °C; with `CN(Cc1ccccc1)c1ccc([N+](=O)[O-])cn1`, 56 to 58 °C.
For `CCc1ncc(C(=O)O)s1` the value was 151 to 153 °C.
With `O=C(O)C1(c2ccc(OCc3ccccc3)cc2)CCOCC1` the figure was 151 to 153 °C; with `O=C(CCl)c1cc2c3c(c1)CC(=O)N3CCC2`, 159 to 161 °C; with `Cc1cc(S(=O)(=O)Cl)ccc1OCC(=O)O`, 127 to 129 °C.
In turn, `CCCCCc1cc(N)on1` came in with a melting point of 40 to 42 °C.
For `CC(=O)SC(C(=O)O)c1ccccc1` (configuration not stated) the value was 79 to 81 °C; for `O=C(O)c1ccccc1C(=O)N1CCCCC1`, 109 to 111 °C; for `CC(C)Oc1ccc(C#N)cc1`, 50 to 52 °C.
With `CCOC(=O)c1ccc(N)c(O)c1` the figure was 91 to 93 °C; with `c1cc(C2CCNCC2)[nH]n1`, 146 to 148 °C; with `NCc1cccc(NC(=O)C2CCC2)c1`, 61 to 63 °C.
For `COCCCS(=O)(=O)NCC(=O)O` the value was 59 to 61 °C.
Compound `O=C(O)CCc1cn(Cc2ccc(Cl)cc2)c2ccccc12` yielded a melting point of 139 to 141 °C.
For `NCc1nc(-c2ccc(Cl)cc2)cs1` the value was 105 to 107 °C; for `COc1ccc(N2C(=O)CCC(C(=O)O)C2c2ccccc2OC)cc1` (configuration not stated), 205 to 208 °C; for `NCC(O)(c1ccccc1)C(F)(F)F` (configuration not stated), 76 to 78 °C.
For `O=C(O)c1cccc(OC2CCCC2)c1` the value was 79 to 81 °C.
For `CS(=O)(=O)CC(O)c1ccccc1` (configuration not stated) the value was 103 to 105 °C.
`CCc1c(C(C)=O)oc2ccccc12` had a melting point of 33 to 35 °C.
For `N#CC(O)c1ccc([N+](=O)[O-])cc1` (configuration not stated) the value was 109 to 111 °C.
For `CCCOc1ccc(CC(=O)O)cc1OCCC` the value was 59 to 61 °C; for `NS(=O)(=O)c1cccc2c1CCCN2`, 147 to 149 °C; for `O=C(CCl)NC(=O)OCc1ccccc1`, 113 to 115 °C.
With `O=C(CCl)NCCc1cccs1` the figure was less than 17 °C; with `Cc1nc(N)nc(Cl)c1Br`, 189 to 191 °C; with `CCNC(=O)c1cccc(NC(=O)CCl)c1`, 173 to 175 °C.
With `O=C(c1[nH]nc2ccccc12)N1CCNCC1`, the melting point was in the range of 179 to 181 °C.
In the case of `O=C(O)CSc1nncn1C1CC1`, the melting point was 203 to 205 °C.
Consider `CC(C)(C)C(=O)Nc1ccccc1C(=O)O`, for which the melting point is 157 to 159 °C.
For `CN1CC(=O)N(c2ccc([N+](=O)[O-])cc2)C1=O` the value was 161 to 163 °C.
In turn, `COc1ccc(-c2nnc(S)n2N)cc1OC` showed a melting point of 204 to 208 °C.
For `NC(=S)Nc1ccc2c(c1)OCCO2` the value was 211 to 213 °C; for `COc1cccc(CNC(=O)CCl)c1`, 100 to 104 °C.
Turning to `O=C(O)CSCc1ccccn1`, the melting point is 136 to 138 °C.
With `COC(=O)c1ccc(CNC(=O)C(C)Cl)cc1` (configuration not stated) the figure was 96 to 98 °C; with `NC1CCN(C(=O)C2CC2)CC1`, 53 to 55 °C.
With `O=C(Nc1cccnc1)C(Cl)C(=O)c1ccccc1` (configuration not stated) the figure was 86 to 90 °C.
For the compound `COC(=O)c1cn(CCCC#N)nn1`, the melting point is 75 to 77 °C.
With `NC(=S)C1CCCCC1` the figure was 115 to 117 °C; with `O=C(O)Cc1ccc(NC(=O)c2ccccc2I)cc1`, 226 to 228 °C; with `CC(C)CS(=O)(=O)CCC(=O)O`, 110 to 112 °C.
For `C=CCNC(=O)NC(=O)CCl` the value was 113 to 115 °C.
For `O=C(O)c1noc(-c2cc(F)cc(F)c2)n1` the value was 136 to 138 °C; for `COC(=O)c1ccc(NS(C)(=O)=O)cc1`, 147 to 149 °C.
Compound `Nc1cc(S(=O)(=O)N2CCOCC2)ccc1O` displayed a melting point of 199 to 201 °C.
With `COc1ccccc1NS(=O)(=O)c1cccc(C(=O)O)c1` the figure was 156 to 158 °C; with `O=[N+]([O-])c1cc(Cl)ccc1NC1CC1`, 70 to 72 °C; with `CC(=O)c1cccc(N2CCCS2(=O)=O)c1`, 84 to 86 °C.
With `CCOC(=O)c1sc(NCCCC(=O)O)nc1-c1ccccc1` the figure was 120 to 122 °C.
With `O=C(O)c1occc1CN1C(=O)Cc2ccccc21` the figure was 203 to 205 °C.
As for `Nc1n[nH]c2ccccc12`, the melting point fell in the range of 152 to 154 °C.
For `O=C(O)CCc1cc2ccccc2o1` the value was 110 to 112 °C; for `COc1ccc(S(=O)(=O)Nc2nccs2)cc1`, 172 to 174 °C.
With `Cc1noc(-c2ccc(N)c(Cl)c2)n1` the figure was 141 to 143 °C; with `CC(C)(C)c1ccc(S(=O)(=O)Cl)s1`, 47 to 49 °C; with `CC(C)Nc1nc(COc2ccccc2)no1`, 86 to 88 °C.
`CCc1ccc(C(=O)c2ccc([N+](=O)[O-])cc2)o1` had a melting point of 76 to 78 °C.
With `Nc1ccc2c(c1)nc1n2CCCCC1` the figure was 180 to 182 °C; with `N#Cc1ccc(NCC(=O)O)nc1`, 167 to 169 °C.
The compound `CCN(CC)S(=O)(=O)c1cc(C(=O)O)ccc1C` came in with a melting point of 142 to 144 °C.
With `CCN(CC)S(=O)(=O)c1ccc(N2CCC(C(=O)O)CC2)c([N+](=O)[O-])c1` the figure was 204 to 206 °C; with `CC(C)(C)c1cnc(S)o1`, 131 to 133 °C; with `CCN(CC)C(=O)c1ccc(C(=O)O)cc1`, 157 to 159 °C.
With `COc1ccc(F)cc1C(=O)CBr` the figure was 74 to 76 °C; with `Cc1ccc(NS(C)(=O)=O)c(N)c1`, 116 to 118 °C; with `Cc1cc(Br)c(O)c(C(=O)O)c1`, 201 to 203 °C.
For `COC(=O)c1sc(C)cc1O` the value was 51 to 53 °C; for `CCCC1CCc2[nH]c(=O)sc2C1` (configuration not stated), 119 to 121 °C; for `CCC1(c2cccc(Cl)c2)NC(=O)NC1=O` (configuration not stated), 159 to 161 °C.
The compound `CCOC(=O)c1ccc2c(c1)nc(CCl)n2CC` yielded a melting point of 91 to 93 °C.
Regarding `O=C1CCCOc2cc(F)ccc21`, the melting point is 37 to 39 °C.
For `O=c1[nH]c2ccc([N+](=O)[O-])cc2o1` the value was 242 to 244 °C.
For `CCOC(=O)c1cc(C)cc(Br)c1N` the value was 44 to 46 °C; for `CC(C)(C)C(=O)Nc1cn[nH]c1`, 200 to 202 °C.
For `CCC(=O)c1ccc(Cl)s1` the value was 47 to 49 °C.
`CS(=O)(=O)CCC(=O)O`: the melting point lay in the range of 100 to 102 °C.
With `Cc1cccn2cc(COc3ccccc3C(=O)O)nc12` the figure was 199 to 201 °C.
For `CCOc1ccc(C(C)=O)cc1[N+](=O)[O-]` the value was 54 to 56 °C; for `N#Cc1ccc(NC(=O)CCCl)cc1Cl`, 156 to 158 °C; for `O=S(=O)(Cl)c1csc(-c2ccc(Br)cc2)n1`, 116 to 118 °C.
In turn, `NC(=O)C1=CCCC1` showed a melting point of 166 to 168 °C.
With `NC(=O)c1ncc(Br)cc1Br`, the melting point was in the range of 187 to 189 °C.
On to `Cc1cccc(OCCNC(=O)C(C)Cl)c1` (configuration not stated), for which the melting point lay within 57 to 59 °C.
For `CNC(=S)NNC(=O)c1ccccc1` the value was 181 to 183 °C.
For `Nc1ccc(OCC2CCCCC2)cc1` the value was 53 to 55 °C; for `CS(=O)(=O)c1ccc(OCCCCC(=O)O)cc1`, 125 to 127 °C.
In turn, `NCc1ccc(N2CCSCC2)cc1` came in with a melting point of 50 to 52 °C.
For `NC1CCCc2[nH]ccc21` (configuration not stated) the value was 83 to 85 °C; for `COc1cc([N+](=O)[O-])ccc1I`, 127 to 129 °C; for `Cc1ccc(C(=O)O)c(O)c1C`, 197 to 199 °C.
In turn, `CCCn1c(=O)[nH]c2ccccc21` had a melting point of 96 to 100 °C.
With `CC(C)N1C(=O)c2ccc(C(=O)O)cc2S1(=O)=O` the figure was 238 to 240 °C; with `O=C(O)CN1C(=O)NC2(CCCC2)C1=O`, 165 to 167 °C; with `OC(c1ccccc1)c1nc(-c2ccccc2)no1` (configuration not stated), 97 to 99 °C.
For `COC(=O)c1ccc(F)cc1S` the value was 41 to 43 °C.
For `O=C(O)c1ccc(S(=O)(=O)NCC2CCCO2)cc1` (configuration not stated) the value was 169 to 171 °C; for `O=C(O)CCc1ccc([N+](=O)[O-])cc1[N+](=O)[O-]`, 124 to 126 °C; for `Cc1ccccc1-c1nc(C(=O)O)cs1`, 119 to 121 °C.
With `NC(=O)c1ccc(=O)[nH]c1`, the melting point lay within 316 to 318 °C.
For the compound `Nc1ccc(NCc2ccccn2)cc1`, the melting point is 89 to 91 °C.
For `Cc1cc(O)cc(=O)n1CCC(=O)O` the value was 172 to 174 °C; for `Cc1cc(=O)[nH]c(-c2cccc(O)c2)n1`, 213 to 215 °C.
Compound `O=[N+]([O-])c1ccc(S)nc1` showed a melting point of 169 to 171 °C.
With `CCN(CC)C(N)=S` the figure was 98 to 102 °C.
With `Nc1ccc(Cl)cc1C(=O)c1ccc[nH]1` the figure was 149 to 151 °C.
Compound `CC(=O)Nc1[nH]c(=O)ccc1[N+](=O)[O-]` displayed a melting point of 182 to 184 °C.
With `CC(C)(C(=O)O)C(O)c1cccc(O)c1` (configuration not stated) the figure was 163 to 165 °C; with `Fc1cc(Br)c(F)cc1S`, 47 to 49 °C.
For `COc1cc(C(=O)O)c([N+](=O)[O-])cc1OCC#N` the value was 149 to 151 °C; for `Nc1ncc(Cc2ccc(S(N)(=O)=O)cc2)s1`, 177 to 179 °C.
With `OC1CNc2c(ccc3ccccc23)C1` (configuration not stated) the figure was 144 to 146 °C; with `Cc1cc(NC(=O)c2ccc(F)cc2Cl)sc1C(=O)O`, 207 to 209 °C; with `Cc1ccc(-c2csc(=O)n2CC(=O)O)cc1`, 128 to 130 °C.
In turn, `CN(C)C(=N)CC#N` yielded a melting point of 79 to 81 °C.
